Results taken from publication PMC12423301, “Astrocytic monoamine oxidase B (MAOB)–gamma-aminobutyric acid (GABA) axis as a molecular brake on repair following spinal cord injury” (Signal Transduction and Targeted Therapy, 2025).
“Also recorded” adds a separate entry of the source. Where two headings read alike, the source gives them in different places.

What was measured:
[1] = tested on: white matter stroke rat model; conditions: cited from earlier work
rat SCI model [2] = experiment: EC / LFB staining of rat spinal cord tissue; type: in vivo, Sprague-Dawley (SD) rats
Description: EC staining was performed as previously described.[71] The tissue sections were placed on a microscope slide, allowed to dry for 2 h, and then immersed in acetone for 5 min. The slides were incubated for 10 min at 22 ± 2 °C and then treated with EC solution (MERCK, Kenilworth, NJ, USA) for 30 min at 22 ± 2 °C. After the sections were rinsed with running water, they were placed on 5% iron alum (Sigma-Aldrich, F3629) until the gray matter was observed. The sections were differentiated using borax-ferricyanide solution (Borax, Sigma-Aldrich, 71997; Potassium ferricyanide, Sigma-Aldrich, 702587) and dehydrated using graded ethanol solutions of 70%, 90%, and 100% which were changed twice. The sections were mounted with permanent mounting medium (Fisher Scientific, Hampton, NH, USA) and finally observed under a light microscope (DM 2500, Leica, Wetzlar, Germany). LFB staining was performed as previously described.[70] The myelin sheath of axons in the tissue sections were stained with 1% luxol fast blue (Sigma-Aldrich, L0294) at 60 °C overnight. The sections were rinsed with lithium carbonate (Sigma-Aldrich, 255823) solution and differentiated by 70% alcohol and then observed under a light microscope (IX71, Olympus, Tokyo, Japan).

[3] = GLP toxicity tests in rats
rat SCI model [4] = experiment: TEM and TB staining of rat spinal cord (myelination); type: in vivo, Sprague-Dawley (SD) rats
Description: Spinal cord tissues were prefixed in Karnovsky’s fixative (2% glutaraldehyde, 2% paraformaldehyde in 0.1 M phosphate buffer) overnight at 4 °C. After postfixation in 1% osmium tetroxide (OsO4), the samples were dehydrated through a graded ethanol series and embedded in epoxy resin.
For TB staining, 250–300 nm semi-thin sections were obtained via an ultramicrotome (Leica Ultracut UCT, Leica Microsystems, Austria), stained with 0.5% toluidine blue, and imaged using a light microscope (Olympus IX71).
For TEM, 80–100 nm ultrathin sections were cut using a diamond knife (Diatome, Switzerland), mounted on 300-mesh Gilder grids, and stained with 6% uranyl acetate and lead citrate. Images were acquired using a transmission electron microscope (JEM 1011, JEOL, Tokyo, Japan) as previously described.
All TB and TEM analyses were performed on spinal cord tissues collected at the lesion epicenter, where myelination is most affected by injury.

[5] = tested on: diphtheria toxin receptor-inducible transgenic mice; type: in vivo, mouse
[6] = tested on: Alzheimer’s disease mouse model; conditions: cited from earlier work
[7] = human
Description: Protocol No. NB_KDS_ADP1_21 Confidential
Therapeutics in Adult Healthy Volunteers), with considering the safety factor and the result of the rat that […]
from the NOAEL calculated in the 4-week repeated toxicity test for rats and cynomolgus monkeys, the maximum recommended starting dose (MRSD) was calculated. As a result of converting 0.484 mg/kg, a value obtained by dividing this by the safety factor of 10, into a dose for a healthy adult weighing 60 kg, the MRSD was calculated to be 29.04 mg, and the initial administration dose was set to 30 mg. As a result of a single oral dose toxicity test in rats, 700 mg/kg was reported as a maximum tolerated dose (MTD), and it was calculated as 6774.2 mg/60kg when converted to a human equivalent dose (HED). Therefore, the set maximum dose is expected to be suitable in terms of safety.
Species NOAEL HED factor (Safety factor factor (Safety factor 1/30) […]
5.2.2. Duration of Dosing and Timepoints of Blood samplings/Urine collections
6 hours. In addition, considering that the Tmax of selegiline (ZELAPAR®) and safinamide (XADAGO®), which are similar drugs, are 0.75 hours and 1.83 to 2.83 hours, respectively, pharmacokinetic blood samplings before the estimated Tmax (about 2 hours) were included at 3 or more time points, and the pharmacokinetic blood […]

in vivo = conditions: Sprague-Dawley, rat
[8] = Sprague-Dawley, rat, in vivo
[9] = GLP toxicity tests in monkeys

For `CS(=O)(=O)O.C[C@H](NCc1ccc(-c2ccc(C(F)(F)F)cc2)cc1)C(N)=O` [KDS2010, (S)-2-(((4’-Trifluoromethylbiphenyl-4-yl)methyl)amino)propanamide methane-sulfonate], the motor performance [1] is listed as “improve motor performance”, the “tissue recovery (total cord area, myelinated area)” value (rat SCI model [2]; 10, 20, and 30 mpk, PI 10w) is listed as “significant tissue recovery” and the “total spinal cord, myelinated, gray matter areas and cavity size (EC staining)” value (rat SCI model [2]; SCI + KDS 2w vs SCI + V, PI 10w) is listed as “significantly recovered”. For the same compound, the “total spinal cord and myelinated areas” value (rat SCI model [2]; SCI + KDS 1 d/Re, PI 10w) was “significantly recovered”, the “total spinal cord and myelinated areas” value (rat SCI model [2]; SCI+KDS 6w vs SCI+V, PI 14w) was “tendency toward larger; also recorded: increasing trend” and the “human equivalent dose (HED) of MTD” value ([3]; from rat MTD) was 6774.2 mg/60kg. For the same compound, the “histopathology (kidneys, bladder, testis, epididymis and lungs)” value ([3]; oral 30, 50, 75 and 100 mg/kg once daily for 4 weeks) was “histopathological changes”, the mortality ([3]; oral 50-200 mg/kg daily for 2 weeks) was “no deaths” and the “myelination (TEM)” value (rat SCI model [4]; SCI + KDS 2w at PI 10w) was “fully recovered”. For the same compound, the “number of myelinated axons” value (rat SCI model [4]; SCI + KDS 2w, PI 2-10w) was “gradual increase”, the density of cavities (rat SCI model [4]; SCI + KDS 2w, TB staining, PI 2-10w) was “gradual decrease” and the brain atrophy [5] was “restored to the level of control group”. For the same compound, the “neurofilament (NF)” value [5] was “reducing”, the “neuronal factors NeuN and MAP2” value [5] was “increasing” and the survival [5] was “increase in survival”. The “learning and memory impairment” value [6] was “reverse learning and memory impairment”, the half-life [7] was roughly 36 h and the MTD (in vivo; po) was 700 mg/kg. For the same compound, the NOAEL at 4 weeks (in vivo; female, NOAEL) was 30 mg/kg, the NOAEL at 4 weeks (in vivo; female, human equivalent dose (HED) of NOAEL) was 4.84 mg/kg and the NOAEL at 4 weeks (in vivo; male, NOAEL) was 50 mg/kg/day. For the same compound, the approximate lethal dose ([8]; iv) was no less than 100 mg/kg, the approximate lethal dose ([8]; po) was no less than 1400 mg/kg and the adverse effects ([9]; oral 0, 10, 20, and 40 mg/kg for 4 weeks, 2 weeks recovery) was “no adverse effects related to the test substance”. The mortality ([9]; oral 2 weeks, 100 mg/kg/day male and female, 50 mg/kg/day male) was “a dying condition or mortality was observed”.
